The results in this text go back to patent US20260070922A1, “PYRAZOLE AND IMIDAZOLE DERIVATIVES AS DUAL OREXIN AND KAPPA-OPIOID RECEPTORS MODULATORS COMPOSITION, METHODS FOR TREATING NEUROLOGICAL AND PSYCHIATRIC DISORDERS” (HAGER BIOSCIENCES, LLC, priority 2022, published 2026).

Assay [1] deals with T1, human k-opioid receptor (kOR) (Homo sapiens, UniProt P41145).
T1 construct: expressed in transfected cells; host or cells: RBL cells (membrane homogenates)
Put plainly: Human k-opioid (KOP) receptor (agonist radioligand [3H]U-69593) binding assay, transfected RBL cell membranes. The settings on record: for IC50: first value of IC50/Ki cell; for inhibition at 1 µM: read-out: KOR % Inh. @ 1 uM. The method in brief:
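Membranes from transfected RBL cells (~80 μg protein) incubated 60 min at 22° C with 0.5 nM [3H]U-69593 in 50 mM Tris-HCl pH 7.4, 10 mM MgCl2, 1 mM EDTA. Nonspecific binding defined with 10 μM naloxone; filtration and scintillation counting. Values are percent inhibition of specific radioligand binding.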

Assay [2] addresses T1, human k-opioid receptor (kOR). Described as above. The settings on record: second value of IC50/Ki cell.
Assay [3] has as its target T2, Orexin type 1 (OX1R) receptor (Homo sapiens, UniProt O43613).
T2 construct: expressed in transfected cells; host or cells: CHO cells (G418 selection)
T2 sequence (O43613 1-425): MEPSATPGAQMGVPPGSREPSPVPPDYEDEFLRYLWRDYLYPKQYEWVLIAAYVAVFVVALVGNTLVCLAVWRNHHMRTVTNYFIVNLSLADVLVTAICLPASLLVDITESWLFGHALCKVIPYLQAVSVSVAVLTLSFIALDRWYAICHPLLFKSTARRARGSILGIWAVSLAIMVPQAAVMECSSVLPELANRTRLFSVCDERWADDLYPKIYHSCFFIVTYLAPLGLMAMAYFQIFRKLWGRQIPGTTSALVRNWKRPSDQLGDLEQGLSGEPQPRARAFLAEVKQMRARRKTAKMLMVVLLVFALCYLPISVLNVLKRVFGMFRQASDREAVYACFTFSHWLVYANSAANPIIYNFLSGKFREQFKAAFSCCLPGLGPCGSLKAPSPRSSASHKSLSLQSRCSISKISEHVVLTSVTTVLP
Put plainly: In vitro orexin antagonism assay: intracellular calcium measurement (FLIPR), orexin-A 3 nM as agonist. It is filed as cell-based. The settings on record: for inhibition at 1 µM: read-out: OX1R, % Inh. @ 1 uM; for IC50: first value of IC50/Kb cell; for Kb: second value of IC50/Kb cell. The method in brief: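 CHO cells expressing the human orexin receptor were loaded with 3 μM fluo-4 AM plus 5 mM probenecid, then exposed to antagonist for 120 min before 3 nM orexin-A (final) was added on a FLIPR.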

In assay [4] the target is T3, human orexin-2 receptor (OX2R) (Homo sapiens, UniProt O43614).
T3 construct: expressed in transfected cells; host or cells: CHO cells (G418 selection)
T3 sequence (O43614 1-444): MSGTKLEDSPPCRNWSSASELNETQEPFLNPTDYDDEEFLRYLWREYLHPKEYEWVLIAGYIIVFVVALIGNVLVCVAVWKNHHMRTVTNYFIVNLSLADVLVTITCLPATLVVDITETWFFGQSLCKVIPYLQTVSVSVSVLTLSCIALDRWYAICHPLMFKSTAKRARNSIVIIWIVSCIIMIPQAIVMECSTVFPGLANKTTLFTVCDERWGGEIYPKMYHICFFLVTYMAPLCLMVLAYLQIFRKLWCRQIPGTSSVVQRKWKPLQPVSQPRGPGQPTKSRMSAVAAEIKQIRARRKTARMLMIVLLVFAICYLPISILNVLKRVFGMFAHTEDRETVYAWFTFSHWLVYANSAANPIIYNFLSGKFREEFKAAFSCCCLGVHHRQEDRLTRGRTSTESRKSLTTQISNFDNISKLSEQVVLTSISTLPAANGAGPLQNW
The assay is described as above. It is filed as cell-based. The following applies: for inhibition at 1 µM: read-out: OX2R, % Inh. @ 1 uM; for Kb: second value of IC50/Kb cell; for IC50: first value of IC50/Kb cell. An outline of the steps:
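Fluorescence peak on 3 nM orexin-A challenge, read by FLIPR and compared with vehicle, yields IC50 (geometric mean when repeated; may be normalized to an on-plate reference). Antagonists were added 120 min beforehand to fluo-4-loaded recombinant CHO cells expressing human OX1R or OX2R.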

T1 sequence (P41145 whole entry): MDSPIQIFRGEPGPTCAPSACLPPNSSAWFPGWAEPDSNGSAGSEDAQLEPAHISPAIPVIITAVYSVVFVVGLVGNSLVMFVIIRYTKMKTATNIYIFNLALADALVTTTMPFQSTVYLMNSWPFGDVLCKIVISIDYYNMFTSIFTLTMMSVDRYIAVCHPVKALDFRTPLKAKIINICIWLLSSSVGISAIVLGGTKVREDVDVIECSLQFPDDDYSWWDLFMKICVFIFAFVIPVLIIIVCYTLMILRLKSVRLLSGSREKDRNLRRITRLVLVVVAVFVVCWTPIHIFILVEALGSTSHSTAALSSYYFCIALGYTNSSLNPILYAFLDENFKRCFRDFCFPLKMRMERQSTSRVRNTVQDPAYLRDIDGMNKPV

For the compound `CCc1cnc(NC[C@@H]2[C@H](C)CCCN2C(=O)c2c(-c3ccccc3)nn3ccccc23)nc1` [Example 4], in assay [1], the IC50 turned out to be 1560 nM and the inhibition at 1 µM was 52%. Besides, in assay [2], the affinity, expressed as Ki, was 854 nM.

Turning to `C[C@@H]1CCCN(C(=O)c2c(-c3ccccc3)nn3c2COCC3)[C@@H]1CNc1ccc(C(F)(F)F)cn1` [Example 7], in assay [1], the IC50 was 1470 nM and the inhibition at 1 µM was 35%. The compound further returned a Ki in assay [2] of 799 nM.

`C[C@@H]1CCCN(C(=O)c2c(-c3ccccc3)nc3ccccn23)[C@@H]1CNc1ccc(C(F)(F)F)cn1` [Example 8]: the inhibition at 1 µM in assay [3] was 100%; in assay [4], 21.4%; in assay [1], 38%. This compound displayed an IC50 in assay [1] of 1980 nM. In addition, in assay [2], affinity was put at a Ki of 1080 nM.

With `O=C(c1c(-c2ccccc2)nn2ccccc12)N1CCC[C@H]1CNc1ccc(C(F)(F)F)cn1` [Example 10], in assay [3], the IC50 turned out to be 4 nM and the Kb worked out at 1 nM. In assay [1], the 50% inhibitory concentration (IC50) stood at 6130 nM and the inhibition at 1 µM stood at 26%. In assay [2], this compound yielded a Ki of 3340 nM.

Turning to `O=C(c1c(-c2ccccc2)nn2ccccc12)N1CCC[C@H]1Cn1ccc(-c2ccccc2)n1` [Example 13], in assay [4], the inhibition at 1 µM worked out at 98.5% and the Kb is 10 nM. In assay [1], the half-inhibitory concentration (IC50) was found to be 1010 nM and the inhibition at 1 µM came to 56%. Further, the affinity in assay [2] corresponds to a Ki of 549 nM.

Take `O=C(c1c(-c2ccccc2)nn2ccccc12)N1CCC[C@H]1COc1ccc(C(F)(F)F)cn1` [Example 20]: in assay [1], the IC50 was 3500 nM and the inhibition at 1 µM was found to be 33%. In assay [2], affinity was put at a Ki of 1910 nM.

Turning to `O=C(c1c(-c2ccccc2)nn2ccccc12)N1CCCC[C@H]1COc1ccc(C(F)(F)F)cn1` [Example 24], in assay [3], the IC50 turned out to be 5 nM, the inhibition at 1 µM was found to be 98% and the Kb was 1 nM. The inhibition at 1 µM in assay [4] came to 60.1%. Also, in assay [1], the 50% inhibitory concentration (IC50) stood at 1100 nM and the inhibition at 1 µM amounted to 52%. The compound also registered a Ki in assay [2] of 630 nM.

On to `C[C@@H]1CCCN(C(=O)c2c(-c3ccccc3)nc3ncccn23)[C@@H]1CNc1ccc(C(F)(F)F)cn1` [Example 34], for which, in assay [3], the half-inhibitory concentration (IC50) turned out to be 53 nM, the inhibition at 1 µM was determined as 79.8% and the Kb was 11 nM. For the same compound, the inhibition at 1 µM in assay [4] was 1.8%. Further, in assay [1], the IC50 was determined as 730 nM and the inhibition at 1 µM amounted to 57%. Further, affinity in assay [2] was put at a Ki of 400 nM.

With `C[C@@H]1CCCN(C(=O)c2c(-c3ccc(F)cc3)nn3ccccc23)[C@@H]1CNc1ccc(C(F)(F)F)cn1` [Example 40], the values for the half-maximal inhibitory concentration (IC50) in assay [3] and in assay [1] were 29 nM and 740 nM, respectively. Further, the inhibition at 1 µM in assay [3] is 98.4%; in assay [4], 7.1%; in assay [1], 59%. Further, the Kb in assay [3] amounted to 6 nM. In assay [2], this compound had a Ki of 400 nM.

As to `O=C(c1c(-c2ccc(F)cc2)nn2ccccc12)N1CCC[C@H]1Cn1ccc(-c2ccccc2)n1` [Example 44], in assay [3], the IC50 amounted to 5 nM, the inhibition at 1 µM is 98.8% and the antagonist equilibrium constant (Kb) came to 1 nM. For the same compound, in assay [4], the IC50 stood at 220 nM, the inhibition at 1 µM was determined as 72.3% and the Kb amounted to 31 nM. Also, in assay [1], the IC50 was 690 nM and the inhibition at 1 µM amounted to 55%. In assay [2], this compound showed a Ki of 370 nM.

In the case of `O=C(c1c(-c2ccccc2)nc2ccc(F)cn12)N1CCC[C@H]1Cn1ccc(-c2ccc(F)cc2)n1` [Example 49], in assay [3], the IC50 turned out to be 9 nM, the inhibition at 1 µM was found to be 102% and the Kb came out at 2 nM. For the same compound, in assay [4], the IC50 was found to be 52 nM, the inhibition at 1 µM came to 79.3% and the antagonist dissociation constant (Kb) worked out at 7 nM. Also, in assay [1], the IC50 came out at 47 nM and the inhibition at 1 µM came out at 92%. Besides, affinity in assay [2] was put at a Ki of 25 nM.

On to `O=C(c1c(-c2ccccc2)nc2cc(F)ccn12)N1CCC[C@H]1Cn1ccc(-c2ccc(F)cc2)n1` [Example 50], for which, in assay [3], the inhibition at 1 µM was 99%. Moreover, in assay [4], the concentration for half-maximal inhibition (IC50) worked out at 18 nM, the inhibition at 1 µM was found to be 89% and the Kb was determined as 3 nM. In assay [1], the concentration for half-maximal inhibition (IC50) amounted to 590 nM and the inhibition at 1 µM turned out to be 59%. The same compound gave a Ki in assay [2] of 320 nM.

Regarding `O=C(c1c(-c2ccccc2)nc2cc(C(F)(F)F)ccn12)N1CCC[C@H]1Cn1ccc(-c2ccc(F)cc2)n1` [Example 53], the half-maximal inhibitory concentration (IC50) in assay [3] came to 21 nM; in assay [4], 33 nM; in assay [1] it was 56 nM. Moreover, the figures for the inhibition at 1 µM in assay [3], in assay [4] and in assay [1] were 97.6%, 95.5% and 93%, respectively. Besides, the results for the Kb in assay [3] and in assay [4] were 4 nM and 5 nM, respectively. For the same compound, the inhibitory constant (Ki) in assay [2] stood at 31 nM.

Consider `O=C(c1c(-c2ccccc2F)nn2ccccc12)N1CCC[C@H]1Cn1cc(-c2ccccc2)cn1` [Example 69], for which, in assay [3], the IC50 came to 9 nM, the inhibition at 1 µM amounted to 100% and the Kb worked out at 2 nM. In assay [4], the IC50 was 23 nM, the inhibition at 1 µM amounted to 86% and the Kb turned out to be 4 nM. In addition, in assay [1], the IC50 amounted to 190 nM and the inhibition at 1 µM is 76%. This compound had a Ki in assay [2] of 100 nM.

Take `O=C(c1nn2cccnc2c1-c1ccccn1)N1CCC[C@H]1Cn1cc(-c2ccccn2)cn1` [Example 186]: in assay [3], the IC50 turned out to be 21 nM, the inhibition at 1 µM came to 86% and the Kb came out at 4 nM. For the same compound, the inhibition at 1 µM in assay [4] was 65%. The inhibition at 1 µM in assay [1] turned out to be 3%.

`O=C(c1nn2cccnc2c1-c1ccccn1)N1C(Cn2ccc(-c3ccc(F)cn3)n2)C[C@@H]2C[C@@H]21` (stereo partly drawn) [Example 187]: in assay [3], the IC50 came out at 14 nM, the inhibition at 1 µM was found to be 100% and the antagonist dissociation constant (Kb) was determined as 3 nM. The inhibition at 1 µM in assay [4] came to 34%. In addition, the inhibition at 1 µM in assay [1] was determined as 0%.

For the compound `O=C(c1nn2cccnc2c1-c1ccccn1)N1CCC[C@H]1Cn1cc(-c2ccc(F)cn2)cn1` [Example 194], the inhibition at 1 µM in assay [3] came out at 89%; in assay [4] it was 82%; in assay [1], 0%. Further, the IC50 in assay [4] worked out at 180 nM. In assay [4], the antagonist dissociation constant (Kb) is 31 nM.

In the case of `O=C(c1nn2c(c1-c1ccccn1)OCCC2)N1CCC[C@H]1Cn1cc(-c2ccccn2)cn1` [Example 197], in assay [3], the IC50 was 31 nM, the inhibition at 1 µM was 97% and the Kb was 7 nM. Moreover, the inhibition at 1 µM in assay [4] worked out at 39%. The inhibition at 1 µM in assay [1] amounted to 2%.

Turning to `O=C(c1nn2c(c1-c1ccccn1)COCC2)N1CCC[C@H]1Cn1cc(-c2ccc(F)cn2)cn1` [Example 198], the “OX1R, % Inh. @ 1 uM” value in assay [3] (@ 1 uM) was 84%. In assay [3], the IC50 stood at 140 nM and the Kb stood at 29 nM. Further, in assay [4] (@ 1 uM), the “OX2R, % Inh. @ 1 uM” value is reported as 50%. Moreover, the “KOR % Inh. @ 1 uM” value in assay [1] (@ 1 uM) was found to be 8%.

Turning to `O=C(c1nn2c(c1-c1ccccn1)OCCC2)N1[C@H](Cn2ccc(-c3ccc(F)cn3)n2)C[C@@H]2C[C@@H]21` [Example 202], in assay [3], the IC50 came to 64 nM, the inhibition at 1 µM came to 87% and the Kb came to 14 nM. Besides, the inhibition at 1 µM in assay [4] turned out to be 14%. In assay [1], the inhibition at 1 µM was determined as 3%.

`O=C(c1nc2ccccn2c1-c1ccccn1)N1CCC[C@H]1Cn1cc(-c2ccc(F)cn2)cn1` [Example 208]: in assay [3], the IC50 was found to be 39 nM, the inhibition at 1 µM was determined as 100% and the antagonist dissociation constant (Kb) was found to be 8 nM. Besides, the inhibition at 1 µM in assay [4] stood at 52%. Besides, the inhibition at 1 µM in assay [1] was 0%.
